# Measurements from patent US20050171195A1, “P2X7 antagonists for treating neuropathic pain” (priority 2003, published 2005).
row,melting point [°C],Compound
1,58 to 60,"Cc1ncccc1NC(=NC#N)NC(NC(=O)Cc1ccc(F)c(F)c1)C(C)(C)C (stereo not shown) [Example 1, N-[1-({(cyanoimino)[(2-methyl-3-pyridinyl)amino]methyl}amino)-2,2-dimethylpropyl]-2-(3,4-difluorophenyl)acetamide]"
2,180 to 181,"Cc1ncccc1NC(=NC#N)NC(NC(=O)Cc1ccc(Cl)cc1)C(C)(C)C (stereo not shown) [Example 2, 2-(4-chlorophenyl)-N-[1-({(cyanoimino)[(2-methyl-3-pyridinyl)amino]methyl}amino)-2,2-dimethylpropyl]acetamide]"
3,65 to 68,"COc1ccc(CCCC(=O)NC(NC(=NC#N)Nc2cccnc2C)C(C)(C)C)cc1 (stereo not shown) [Example 3, N-[1-({(cyanoimino)[(2-methyl-3-pyridinyl)amino]methyl}amino)-2,2-dimethylpropyl]-4-(4-methoxyphenyl)butanamide]"
4,75 to 77,"Cc1ccc(CC(=O)NC(NC(=NC#N)Nc2cccnc2C)C(C)(C)C)cc1F (stereo not shown) [Example 4, N-[1-({(cyanoimino)[(2-methyl-3-pyridinyl)amino]methyl}amino)-2,2-dimethylpropyl]-2-(3-fluoro-4-methylphenyl)acetamide]"
5,133 to 134,"Cc1ncccc1NC(=NC#N)NC(NC(=O)CCCCc1ccccc1)C(C)(C)C (stereo not shown) [Example 5, N-[1-({(cyanoimino)[(2-methyl-3-pyridinyl)amino]methyl}amino)-2,2-dimethylpropyl]-5-phenylpentanamide]"
6,166 to 167,"Cc1ncccc1NC(=NC#N)NC(NC(=O)Cc1ccc(F)cc1)C(C)(C)C (stereo not shown) [Example 6, N-[1-({(cyanoimino)[(2-methyl-3-pyridinyl)amino]methyl}amino)-2,2-dimethylpropyl]-2-(4-fluorophenyl)acetamide]"
7,66 to 68,"Cc1ncccc1NC(=NC#N)NC(NC(=O)CCCc1cccs1)C(C)(C)C (stereo not shown) [Example 7, N-[1-({(cyanoimino)[(2-methyl-3-pyridinyl)amino]methyl}amino)-2,2-dimethylpropyl]-4-(2-thienyl)butanamide]"
8,172 to 173,"CSc1ccc(CC(=O)NC(NC(=NC#N)Nc2cccnc2C)C(C)(C)C)cc1 (stereo not shown) [Example 8, N-[1-({(cyanoimino)[(2-methyl-3-pyridinyl)amino]methyl}amino)-2,2-dimethylpropyl]-2-[4-(methylthio)phenyl]acetamide]"
9,112 to 114,"CCc1ncccc1NC(=NC#N)NC(NC(=O)Cc1ccc(Cl)cc1)C(C)(C)C (stereo not shown) [Example 9, 2-(4-chlorophenyl)-N-[1-({(cyanoimino)[(2-ethyl-3-pyridinyl)amino]methyl}amino)-2,2-dimethylpropyl]acetamide]"
10,174,"COc1ccc(CC(=O)NC(NC(=NC#N)Nc2ccccc2C)C(C)(C)C)cc1 (stereo not shown) [Example 14, N-[1-({(cyanoimino)[(2-methylphenyl)amino]methyl}amino)-2,2-dimethylpropyl]-2-(4-methoxyphenyl)acetamide]"
11,152 to 153,"Cc1ccccc1NC(=NC#N)NC(NC(=O)Cc1ccc2c(c1)OCO2)C(C)(C)C (stereo not shown) [Example 15, 2-(1,3-benzodioxol-5-yl)-N-[1-({(cyanoimino)[(2-methylphenyl)amino]methyl}amino)-2,2-dimethylpropyl]acetamide]"
12,151 to 152,"CSc1ccc(CC(=O)NC(NC(=NC#N)Nc2ccccc2C)C(C)(C)C)cc1 (stereo not shown) [Example 16, N-[1-({(cyanoimino)[(2-methylphenyl)amino]methyl}amino)-2,2-dimethylpropyl]-2-[4-(methylthio)phenyl]acetamide]"
13,181 to 182,"Cc1ccccc1NC(=NC#N)NC(NC(=O)Cc1ccc(Cl)cc1)C(C)(C)C (stereo not shown) [Example 17, 2-(4-chlorophenyl)-N-[1-({(cyanoimino)[(2-methylphenyl)amino]methyl}amino)-2,2-dimethylpropyl]acetamide]"
14,153 to 154,"Cc1ccccc1NC(=NC#N)NC(NC(=O)CCCc1ccccc1)C(C)(C)C (stereo not shown) [Example 18, N-[1-({(cyanoimino)[(2-methylphenyl)amino]methyl}amino)-2,2-dimethylpropyl]-4-phenylbutanamide]"
15,190 to 191,"COc1ccc(CC(=O)NC(NC(=NC#N)Nc2cc(F)ccc2F)C(C)(C)C)cc1OC (stereo not shown) [Example 19, N-[1-({(cyanoimino)[(2,5-difluorophenyl)amino]methyl}amino)-2,2-dimethylpropyl]-2-(3,4-dimethoxyphenyl)acetamide]"
16,135 to 136,"COc1ccc(CC(=O)NC(NC(=NC#N)Nc2ccccc2Cl)C(C)(C)C)cc1OC (stereo not shown) [Example 20, N-(1-{[[(2-chlorophenyl)amino](cyanoimino)methyl]amino}-2,2-dimethylpropyl)-2-(3,4-dimethoxyphenyl)acetamide]"
17,93 to 94,"COc1ccc(CC(=O)NC(NC(=NC#N)Nc2cc(C)ccc2C)C(C)(C)C)cc1OC (stereo not shown) [Example 21, N-[1-({(cyanoimino)[(2,5-dimethylphenyl)amino]methyl}amino)-2,2-dimethylpropyl]-2-(3,4-dimethoxyphenyl)acetamide]"

row,melting point [°C],Compound
1,170 to 171,"COc1ccc(CC(=O)NC(NC(=NC#N)Nc2c(F)cc(F)cc2F)C(C)(C)C)cc1OC (stereo not shown) [Example 22, N-[1-({(cyanoimino)[(2,4,6-trifluorophenyl)amino]methyl}amino)-2,2-dimethylpropyl]-2-(3,4-dimethoxyphenyl)acetamide]"
2,187 to 188,"COc1ccc(CC(=O)NC(NC(=NC#N)Nc2cc(Cl)ccc2F)C(C)(C)C)cc1OC (stereo not shown) [Example 23, N-(1-{[[(5-chloro-2-fluorophenyl)amino](cyanoimino)methyl]amino}-2,2-dimethylpropyl)-2-(3,4-dimethoxyphenyl)acetamide]"
3,146 to 147,"COc1ccc(CC(=O)NC(NC(=NC#N)Nc2cccnc2OC)C(C)(C)C)cc1OC (stereo not shown) [Example 24, N-[1-({(cyanoimino)[(2-methoxy-3-pyridinyl)amino]methyl}amino)-2,2-dimethylpropyl]-2-(3,4-dimethoxyphenyl)acetamide]"
4,174 to 175,"CC(C)(C)C(NC(=O)Cc1ccc(Cl)cc1)NC(=NC#N)Nc1cccnc1Cl (stereo not shown) [Example 26, 2-(4-chlorophenyl)-N-(1-{[[(2-chloro-3-pyridinyl)amino](cyanoimino)methyl]amino}-2,2-dimethylpropyl)acetamide]"
5,162 to 163,"COc1ccc(NC(=NC#N)NC(NC(=O)Cc2ccc(OC)c(OC)c2)C(C)(C)C)c(OC)n1 (stereo not shown) [Example 27, N-[1-({(cyanoimino)[(2,6-dimethoxy-3-pyridinyl)amino]methyl}amino)-2,2-dimethylpropyl]-2-(3,4-dimethoxyphenyl)acetamide]"
6,188 to 189,"CSc1ccc(CC(=O)NC(NC(=NC#N)Nc2cccc3ncccc23)C(C)(C)C)cc1 (stereo not shown) [Example 31, N-(1-{[(cyanoimino)(5-quinolinylamino)methyl]amino}-2,2-dimethylpropyl)-2-[4-(methylthio)phenyl]acetamide]"
7,195 to 196,"CC(C)(C)C(NC(=O)Cc1ccc(Cl)cc1)NC(=NC#N)Nc1cccc2ncccc12 (stereo not shown) [Example 32, 2-(4-chlorophenyl)-N-(1-{[(cyanoimino)(5-quinolinylamino)methyl]amino}-2,2-dimethylpropyl)acetamide]"
8,200 to 201,"CC(C)(C)C(NC(=O)Cc1ccc2ccccc2c1)NC(=NC#N)Nc1cccc2ncccc12 (stereo not shown) [Example 36, N-(1-{[(cyanoimino)(5-quinolinylamino)methyl]amino}-2,2-dimethylpropyl)-2-(2-naphthyl)acetamide]"
9,189 to 190,"CCSc1ccc(CC(=O)NC(NC(=NC#N)Nc2cccc3ncccc23)C(C)(C)C)cc1 (stereo not shown) [Example 37, N-(1-{[(cyanoimino)(5-quinolinylamino)methyl]amino}-2,2-dimethylpropyl)-2-[4-(ethylthio)phenyl]acetamide]"
10,191 to 192,"CC(C)(C)C(NC(=O)Cc1ccc2c(c1)OCCO2)NC(=NC#N)Nc1cccc2ncccc12 (stereo not shown) [Example 38, N-(1-{[(cyanoimino)(5-quinolinylamino)methyl]amino}-2,2-dimethylpropyl)-2-(2,3-dihydro-1,4-benzodioxin-6-yl)acetamide]"
11,147 to 148,"CC(C)(C)C(NC(=O)Cc1ccc2cccnc2c1)NC(=NC#N)Nc1cccc2ncccc12 (stereo not shown) [Example 39, N-(1-{[(cyanoimino)(5-quinolinylamino)methyl]amino}-2,2-dimethylpropyl)-2-(7-quinolinyl)acetamide]"
12,150 to 151,"CC(C)(C)C(NC(=O)Cc1ccc2ncccc2c1)NC(=NC#N)Nc1cccc2ncccc12 (stereo not shown) [Example 40, N-(1-{[(cyanoimino)(5-quinolinylamino)methyl]amino}-2,2-dimethylpropyl)-2-(6-quinolinyl)acetamide]"
13,194.5 to 195.5,"CC(C)(C)C(NC(=O)Cc1ccc(C#N)cc1)NC(=NC#N)Nc1cccc2ncccc12 (stereo not shown) [Example 41, N-(1-{[(cyanoimino)(5-quinolinylamino)methyl]amino}-2,2-dimethylpropyl)-2-(4-cyanophenyl)acetamide]"
14,181 to 182,"CC(C)(C)C(NC(=O)CCCc1cccnc1)NC(=NC#N)Nc1cccc2ncccc12 (stereo not shown) [Example 42, N-(1-{[(cyanoimino)(5-quinolinylamino)methyl]amino}-2,2-dimethylpropyl)-4-(3-pyridinyl)butanamide]"
15,114 to 117,"CN1CCCc2c(NC(=NC#N)NC(NC(=O)Cc3ccc(Cl)cc3)C(C)(C)C)cccc21 (stereo not shown) [Example 43, 2-(4-chlorophenyl)-N-[1-({(cyanoimino)[(1-methyl-1,2,3,4-tetrahydro-5-quinolinyl)amino]methyl}amino)-2,2-dimethylpropyl]acetamide]"
16,198 to 199,"Cc1ccc2c(NC(=NC#N)NC(NC(=O)Cc3ccc(Cl)cc3)C(C)(C)C)cccc2n1 (stereo not shown) [Example 44, 2-(4-chlorophenyl)-N-[1-({(cyanoimino)[(2-methyl-5-quinolinyl)amino]methyl}amino)-2,2-dimethylpropyl]acetamide]"
17,135 to 137,"CC(C)(C)C(NC(=O)Cc1ccc(Cl)cc1)NC(=NC#N)Nc1cccc2cnsc12 (stereo not shown) [Example 45, N-(1-{[(1,2-benzisothiazol-7-ylamino)(cyanoimino)methyl]amino}-2,2-dimethylpropyl)-2-(4-chlorophenyl)acetamide]"
